The record followed here is patent US12083231B2, “Starch-based double-loaded functional nano particle as well as preparation method and application” (Hefei University of Technology, priority 2021, dated 2024).

The nature of this data set: Retention rate of quercetin and anthocyanin during storage for 14 days. The following applies: after being stored for 14 days; nanoparticle with EHT:carboxymethyl dextrin mass ratio 1:1. The format is physicochemical. From the text:
It can be seen from FIG. 8 that quercetin and anthocyanin alone are easy to degrade in the environment, and only about 20% of quercetin and anthocyanin can be retained after being stored for 14 days. […] The significant increase of retention rate proves that the starch-based double-loaded functional colloid nanoparticle can effectively protect quercetin and anthocyanin from being degraded.

With `O=c1c(O)c(-c2ccc(O)c(O)c2)oc2cc(O)cc(O)c12` [quercetin], the “retention rate of quercetin” value is “about 20%”.

As for anthocyanin, the “retention rate of anthocyanin” value was “about 20%”.
